Measured values: US20230416203A1, “POTENT AND SELECTIVE INHIBITORS OF THE CALCIUM-ACTIVATED POTASSIUM CHANNEL, KCA3.1, FOR USE AS PLATFORM THERAPEUTICS” (priority 2020, published 2023)

Legend:
[1] = target: T1, KCa2.2 (Rattus norvegicus, UniProt P70604); assay: Potassium channels patch-clamp (QPatch), KCa2.2; assay type: cell-based
T1 construct: expressed in transfected cells; host or cells: HEK
Description: (§1) The effects of Group 4 compounds on related potassium channels were evaluated by patch-clamp using a QPatch HTX automated electrophysiology platform (Sophion, Denmark). The giga-seal and whole-cell requirements for the automated electrophysiology were the following: minimum seal resistance=0.1 GO, holding potential=−80 mV, holding pressure=−20 mbar; and positioning pressure=−70 mbar.

[2] = target: T2, KCa1.1 (Homo sapiens, UniProt Q12791); assay: Potassium channels patch-clamp (QPatch), KCa1.1; assay type: cell-based
T2 construct: expressed in transfected cells; host or cells: HEK
T2 sequence (Q12791 whole entry): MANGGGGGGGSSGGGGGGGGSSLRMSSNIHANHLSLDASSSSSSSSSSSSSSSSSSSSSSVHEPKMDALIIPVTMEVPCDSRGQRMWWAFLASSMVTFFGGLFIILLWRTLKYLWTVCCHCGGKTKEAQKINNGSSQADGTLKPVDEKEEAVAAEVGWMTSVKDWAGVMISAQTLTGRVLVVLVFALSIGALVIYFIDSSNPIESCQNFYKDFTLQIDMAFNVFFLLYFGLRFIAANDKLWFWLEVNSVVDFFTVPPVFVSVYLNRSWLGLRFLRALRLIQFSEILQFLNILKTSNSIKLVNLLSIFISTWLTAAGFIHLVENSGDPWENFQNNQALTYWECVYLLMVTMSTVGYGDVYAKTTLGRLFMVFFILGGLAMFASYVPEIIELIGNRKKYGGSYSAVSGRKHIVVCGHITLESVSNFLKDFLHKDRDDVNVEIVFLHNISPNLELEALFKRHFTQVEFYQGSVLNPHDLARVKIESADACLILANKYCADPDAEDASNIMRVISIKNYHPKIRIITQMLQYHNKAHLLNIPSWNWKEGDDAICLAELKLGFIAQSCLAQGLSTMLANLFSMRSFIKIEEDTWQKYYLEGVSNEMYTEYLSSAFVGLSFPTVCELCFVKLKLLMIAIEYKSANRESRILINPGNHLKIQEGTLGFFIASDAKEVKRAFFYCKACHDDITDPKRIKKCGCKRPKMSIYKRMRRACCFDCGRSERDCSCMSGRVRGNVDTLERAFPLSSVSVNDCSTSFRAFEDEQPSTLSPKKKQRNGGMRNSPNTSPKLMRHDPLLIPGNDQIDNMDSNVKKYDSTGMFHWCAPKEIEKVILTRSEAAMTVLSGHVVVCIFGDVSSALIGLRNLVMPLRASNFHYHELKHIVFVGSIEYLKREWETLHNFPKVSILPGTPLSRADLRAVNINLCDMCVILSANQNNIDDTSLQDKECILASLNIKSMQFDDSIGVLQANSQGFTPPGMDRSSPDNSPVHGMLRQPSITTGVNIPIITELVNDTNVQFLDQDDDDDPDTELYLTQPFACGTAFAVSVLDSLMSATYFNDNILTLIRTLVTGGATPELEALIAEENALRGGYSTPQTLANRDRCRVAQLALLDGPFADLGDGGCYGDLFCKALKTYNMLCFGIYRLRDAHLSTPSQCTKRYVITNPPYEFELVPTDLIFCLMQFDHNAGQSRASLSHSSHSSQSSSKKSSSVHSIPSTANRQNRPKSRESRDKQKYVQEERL
Description: as §1

[3] = target: T3, CYP-2D6 (Homo sapiens, UniProt P10635); assay: Cytochrome P450 enzymes inhibition assay, CYP-2D6; assay type: in vitro ADME; settings: for CYP IC50/KCa3.1 IC50: CYP-2D6
T3 construct: from tissue
T3 sequence (P10635 whole entry): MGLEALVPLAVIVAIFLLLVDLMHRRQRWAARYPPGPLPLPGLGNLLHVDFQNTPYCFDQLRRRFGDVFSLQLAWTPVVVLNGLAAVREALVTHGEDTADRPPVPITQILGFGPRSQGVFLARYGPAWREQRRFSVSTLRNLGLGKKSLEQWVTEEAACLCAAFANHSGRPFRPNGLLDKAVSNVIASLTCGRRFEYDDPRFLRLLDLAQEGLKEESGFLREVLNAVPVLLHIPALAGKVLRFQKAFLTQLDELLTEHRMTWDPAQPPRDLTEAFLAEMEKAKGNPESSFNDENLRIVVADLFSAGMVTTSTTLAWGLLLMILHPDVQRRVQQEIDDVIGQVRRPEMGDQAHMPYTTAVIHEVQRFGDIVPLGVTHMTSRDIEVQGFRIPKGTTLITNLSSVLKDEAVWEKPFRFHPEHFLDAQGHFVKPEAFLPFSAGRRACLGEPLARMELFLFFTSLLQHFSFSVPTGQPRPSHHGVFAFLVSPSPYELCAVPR
Source text: The metabolite formation for each substrate under the above conditions was estimated using the following formula: Percent inhibition=[1−(test area ratio/control area ratio)]×100.

[4] = target: T4, KV3.1 (Mus musculus, UniProt P15388); assay: Potassium channels patch-clamp (QPatch), KV3.1; assay type: cell-based
T4 construct: expressed in transfected cells; host or cells: L929
T4 sequence (P15388 1-511): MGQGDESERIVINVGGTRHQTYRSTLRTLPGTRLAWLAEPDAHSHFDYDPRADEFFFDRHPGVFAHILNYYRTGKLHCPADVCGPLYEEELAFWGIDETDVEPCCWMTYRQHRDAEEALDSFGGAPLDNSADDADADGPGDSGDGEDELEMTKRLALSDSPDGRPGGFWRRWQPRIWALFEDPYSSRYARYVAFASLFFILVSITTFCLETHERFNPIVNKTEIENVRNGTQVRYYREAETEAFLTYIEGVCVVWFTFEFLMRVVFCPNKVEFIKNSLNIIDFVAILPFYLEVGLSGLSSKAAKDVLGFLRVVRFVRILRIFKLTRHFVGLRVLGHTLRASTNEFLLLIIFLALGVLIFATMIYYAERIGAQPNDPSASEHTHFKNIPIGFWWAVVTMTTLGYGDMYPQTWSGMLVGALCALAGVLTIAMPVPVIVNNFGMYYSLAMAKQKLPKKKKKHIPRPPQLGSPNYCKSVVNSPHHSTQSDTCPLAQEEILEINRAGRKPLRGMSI
Description: as §1

[5] = target: T5, KV1.5 (Homo sapiens, UniProt P22460); assay: Potassium channels patch-clamp (QPatch), KV1.5; assay type: cell-based
T5 construct: expressed in transfected cells; host or cells: MEL
T5 sequence (P22460 whole entry): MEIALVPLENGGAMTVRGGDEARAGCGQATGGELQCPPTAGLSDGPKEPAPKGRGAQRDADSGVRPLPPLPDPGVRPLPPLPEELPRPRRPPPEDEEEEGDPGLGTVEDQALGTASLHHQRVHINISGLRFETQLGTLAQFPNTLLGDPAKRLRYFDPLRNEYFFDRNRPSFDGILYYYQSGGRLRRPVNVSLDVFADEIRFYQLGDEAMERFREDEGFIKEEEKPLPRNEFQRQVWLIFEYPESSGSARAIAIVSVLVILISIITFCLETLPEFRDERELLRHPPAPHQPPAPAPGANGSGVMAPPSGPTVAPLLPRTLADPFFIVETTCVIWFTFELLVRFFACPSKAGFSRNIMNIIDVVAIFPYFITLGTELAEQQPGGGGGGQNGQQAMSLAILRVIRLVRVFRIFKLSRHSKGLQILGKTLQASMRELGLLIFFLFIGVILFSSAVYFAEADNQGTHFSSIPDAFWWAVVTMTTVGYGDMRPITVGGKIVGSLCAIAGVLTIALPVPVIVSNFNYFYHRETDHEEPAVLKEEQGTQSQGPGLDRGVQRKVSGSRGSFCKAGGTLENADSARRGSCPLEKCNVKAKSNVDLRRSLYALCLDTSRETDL
Description: as §1

[6] = Microsomal stability studies; settings: for Microsomal Stability (human) % remaining @ 30 mins: human microsomes, 1 μM; for drug/control (% remaining @ 30 mins): ratio to Verapamil control
[7] = target: T6, KV1.1 (Mus musculus, UniProt P16388); assay: Potassium channels patch-clamp (QPatch), KV1.1; assay type: cell-based
T6 construct: expressed in transfected cells; host or cells: L929
T6 sequence (P16388 whole entry): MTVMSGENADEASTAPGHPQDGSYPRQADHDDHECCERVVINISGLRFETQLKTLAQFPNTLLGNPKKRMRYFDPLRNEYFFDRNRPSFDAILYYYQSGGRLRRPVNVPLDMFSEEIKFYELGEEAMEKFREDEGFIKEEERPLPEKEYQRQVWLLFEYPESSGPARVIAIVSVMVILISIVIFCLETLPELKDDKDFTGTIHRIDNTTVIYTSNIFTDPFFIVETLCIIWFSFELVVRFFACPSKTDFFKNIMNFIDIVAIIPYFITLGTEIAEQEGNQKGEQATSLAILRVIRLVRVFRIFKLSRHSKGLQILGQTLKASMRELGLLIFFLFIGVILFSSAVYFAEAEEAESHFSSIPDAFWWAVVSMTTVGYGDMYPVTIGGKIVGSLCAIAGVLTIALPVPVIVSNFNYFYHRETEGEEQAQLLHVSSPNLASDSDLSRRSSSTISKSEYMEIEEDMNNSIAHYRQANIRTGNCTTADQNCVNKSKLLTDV
Description: as §1

T1 sequence (P70604 whole entry): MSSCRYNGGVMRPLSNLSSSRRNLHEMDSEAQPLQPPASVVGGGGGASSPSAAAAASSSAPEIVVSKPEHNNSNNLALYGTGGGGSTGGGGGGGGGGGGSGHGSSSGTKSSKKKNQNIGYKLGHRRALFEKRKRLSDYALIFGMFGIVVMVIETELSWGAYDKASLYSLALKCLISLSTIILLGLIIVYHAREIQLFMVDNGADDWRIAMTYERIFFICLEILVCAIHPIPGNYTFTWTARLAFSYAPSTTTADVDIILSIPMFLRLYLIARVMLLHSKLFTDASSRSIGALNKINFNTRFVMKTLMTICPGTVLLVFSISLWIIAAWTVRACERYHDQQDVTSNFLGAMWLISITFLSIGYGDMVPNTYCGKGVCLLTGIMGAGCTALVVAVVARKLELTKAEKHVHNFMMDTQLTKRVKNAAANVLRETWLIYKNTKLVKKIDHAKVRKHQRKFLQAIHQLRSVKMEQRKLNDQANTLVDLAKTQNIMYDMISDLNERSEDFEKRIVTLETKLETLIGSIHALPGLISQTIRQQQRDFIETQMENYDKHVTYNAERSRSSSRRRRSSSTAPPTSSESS

## COC(=O)C1=CNC=C(C(=O)OC)C1c1ccc(F)c(C(F)(F)F)c1 [Compound 103, Dimethyl 4-(4-fluoro-3-(trifluoromethyl)phenyl)-1,4-dihydropyridine-3,5-dicarboxylate]
[1]
  IC50: > 10 µM
[2]
  IC50: > 10 µM
[3]
  CYP IC50/KCa3.1 IC50: 3279
[4]
  IC50: > 10 µM
[5]
  IC50: > 10 µM
[6]
  Microsomal Stability (human) % remaining @ 30 mins: 25%
  drug/control (% remaining @ 30 mins): 3.7
[7]
  IC50: > 10 µM

## COC(=O)C1=C(C)NC(C)=C(C(=O)OC)C1c1ccc(F)c(C(F)(F)F)c1 [Compound 101]
[1]
  IC50: > 10 µM
[2]
  IC50: > 10 µM
[3]
  CYP IC50/KCa3.1 IC50: 1226
[3]; microsomes
  IC50: > 20 µM
[4]
  IC50: > 10 µM
[5]
  IC50: > 10 µM
[6]
  Microsomal Stability (human) % remaining @ 30 mins: 53%
  drug/control (% remaining @ 30 mins): 1.6
[7]
  IC50: > 10 µM
